Source: patent publication US12447156B2, “Treating progressive familial intrahepatic cholestasis (PFIC) with IBAT inhibitors” (ALBIREO AB, priority 2020, dated 2025)

Tested on: patients with PFIC with prior PEBD surgery
Experiment: PEDFIC 1/2 post hoc subgroup: patients with prior partial external biliary diversion (PEBD)
Type: in vivo, human
Protocol: One surgical treatment option for patients with PFIC is partial external biliary diversion (PEBD), which can be used to reduce bile acid levels in patients with medically refractory pruritus. However, PEBD is not successful in all patients. […] This post hoc subgroup analysis evaluated the safety and efficacy of odevixibat in patients enrolled in the PEDFIC studies who had PEBD surgery prior to study entry.
In the double-blind PEDFIC 1 study, children with PFIC1 or PFIC2 were randomized to placebo or 40 or 120 μg/kg/day odevixibat for 24 weeks. In PEDFIC 2, an ongoing, open-label extension study, patients from PEDFIC 1 or newly enrolled patients with any PFIC subtype receive odevixibat 120 μg/kg/day. In both PEDFIC 1 and PEDFIC 2, eligible patients had elevated sBAs and significant pruritus at screening. Changes over time in sBA levels and observer-reported pruritus (range: 0-4; higher scores indicate worse symptoms), sleep parameters, and quality of life (QoL; assessed with the Pediatric Quality of Life Inventory [PedsQL]) were evaluated in the subgroup of patients from PEDFIC 1 and/or PEDFIC 2 with a medical history of PEBD surgery performed prior to study enrollment.

[1] = of 10 patients with prior PEBD surgery

`CCCCC1(CCCC)CN(c2ccccc2)c2cc(SC)c(OCC(=O)N[C@@H](C(=O)N[C@@H](CC)C(=O)O)c3ccc(O)cc3)cc2S(=O)(=O)N1` [Odevixibat, 1,1-dioxo-3,3-dibutyl-5-phenyl-7-methylthio-8-(N-{(R)-α-[N-((S)-1-carboxypropyl)carbamoyl]-4-hydroxybenzyl}carbamoylmethoxy)-2,3,4,5-tetrahydro-1,2,5-benzothiadiazepine] was tested, and the “Pruritus Responder?” value (Patient 1 (prior PEBD, PFIC2; PEDFIC 1 placebo, PEDFIC 2 120 μg/kg/d; 42 weeks exposure)) was “N (N, no)”, the “Change From Baseline in Pruritus Score” value (Patient 1 (prior PEBD, PFIC2; PEDFIC 1 placebo, PEDFIC 2 120 μg/kg/d; 42 weeks exposure), baseline 1.9) was 0.1 and the “Change From Baseline in sBAs” value (Patient 1 (prior PEBD, PFIC2; PEDFIC 1 placebo, PEDFIC 2 120 μg/kg/d; 42 weeks exposure), baseline 172) was -18 µmol/L. For the same compound, the “Pruritus Responder?” value (Patient 2 (prior PEBD, PFIC1; PEDFIC 1 placebo, PEDFIC 2 120 μg/kg/d; 35 weeks exposure)) was “N (N, no)”, the “Change From Baseline in Pruritus Score” value (Patient 2 (prior PEBD, PFIC1; PEDFIC 1 placebo, PEDFIC 2 120 μg/kg/d; 35 weeks exposure), baseline 3.8) was −0.9 and the “Change From Baseline in sBAs” value (Patient 2 (prior PEBD, PFIC1; PEDFIC 1 placebo, PEDFIC 2 120 μg/kg/d; 35 weeks exposure), baseline 225) was -69.5 µmol/L. The “Pruritus Responder?” value (Patient 3 (prior PEBD, PFIC1; PEDFIC 1 40 μg/kg/d, PEDFIC 2 120 μg/kg/d; 44 weeks exposure)) was “Y (≥1-point drop in pruritus score at last assessment)”, the “Change From Baseline in Pruritus Score” value (Patient 3 (prior PEBD, PFIC1; PEDFIC 1 40 μg/kg/d, PEDFIC 2 120 μg/kg/d; 44 weeks exposure), baseline 3.0) was −2.1 and the “Change From Baseline in sBAs” value (Patient 3 (prior PEBD, PFIC1; PEDFIC 1 40 μg/kg/d, PEDFIC 2 120 μg/kg/d; 44 weeks exposure), baseline 193) was 197 µmol/L. The “Pruritus Responder?” value (Patient 4 (prior PEBD, PFIC1; PEDFIC 1 40 μg/kg/d, PEDFIC 2 120 μg/kg/d; 55 weeks exposure)) was “Y (≥1-point drop in pruritus score at last assessment)”, the “Change From Baseline in Pruritus Score” value (Patient 4 (prior PEBD, PFIC1; PEDFIC 1 40 μg/kg/d, PEDFIC 2 120 μg/kg/d; 55 weeks exposure), baseline 3.0) was −1.5 and the “Change From Baseline in sBAs” value (Patient 4 (prior PEBD, PFIC1; PEDFIC 1 40 μg/kg/d, PEDFIC 2 120 μg/kg/d; 55 weeks exposure), baseline 163) was -53.5 µmol/L. For the same compound, the “Pruritus Responder?” value (Patient 5 (prior PEBD, PFIC2; 120 μg/kg/d in PEDFIC 1 and 2; 53 weeks exposure)) was “N (N, no)”, the “Change From Baseline in Pruritus Score” value (Patient 5 (prior PEBD, PFIC2; 120 μg/kg/d in PEDFIC 1 and 2; 53 weeks exposure), baseline 2.8) was 0.3 and the “Change From Baseline in sBAs” value (Patient 5 (prior PEBD, PFIC2; 120 μg/kg/d in PEDFIC 1 and 2; 53 weeks exposure), baseline 156.5) was -11.5 µmol/L. For the same compound, the “Pruritus Responder?” value (Patient 6 (prior PEBD, PFIC2; 120 μg/kg/d in PEDFIC 1 and 2; 44 weeks exposure)) was “N (N, no)”, the “Change From Baseline in Pruritus Score” value (Patient 6 (prior PEBD, PFIC2; 120 μg/kg/d in PEDFIC 1 and 2; 44 weeks exposure), baseline 3.0) was 0.0 and the “Change From Baseline in sBAs” value (Patient 6 (prior PEBD, PFIC2; 120 μg/kg/d in PEDFIC 1 and 2; 44 weeks exposure), baseline 237) was 103 µmol/L. For the same compound, the “Pruritus Responder?” value (Patient 7 (prior PEBD, PFIC2; 120 μg/kg/d in PEDFIC 1 and 2; 54 weeks exposure, discontinued)) was “N (N, no)”, the “Change From Baseline in Pruritus Score” value (Patient 7 (prior PEBD, PFIC2; 120 μg/kg/d in PEDFIC 1 and 2; 54 weeks exposure, discontinued), baseline 2.9) was −0.3 and the “Change From Baseline in sBAs” value (Patient 7 (prior PEBD, PFIC2; 120 μg/kg/d in PEDFIC 1 and 2; 54 weeks exposure, discontinued), baseline 208) was 178 µmol/L. The “Pruritus Responder?” value (Patient 8 (prior PEBD, PFIC1; 120 μg/kg/d in PEDFIC 1 and 2; 47 weeks exposure)) was “Y (≥1-point drop in pruritus score at last assessment)”, the “Change From Baseline in Pruritus Score” value (Patient 8 (prior PEBD, PFIC1; 120 μg/kg/d in PEDFIC 1 and 2; 47 weeks exposure), baseline 2.0) was −2.1 and the “Change From Baseline in sBAs” value (Patient 8 (prior PEBD, PFIC1; 120 μg/kg/d in PEDFIC 1 and 2; 47 weeks exposure), baseline 188.5) was 61.5 µmol/L. The “Pruritus Responder?” value (Patient 9 (prior PEBD, PFIC1; PEDFIC 2 only, 120 μg/kg/d; 25 weeks exposure)) was “N (N, no)”, the “Change From Baseline in Pruritus Score” value (Patient 9 (prior PEBD, PFIC1; PEDFIC 2 only, 120 μg/kg/d; 25 weeks exposure), baseline 2.0) was −0.5 and the “Change From Baseline in sBAs” value (Patient 9 (prior PEBD, PFIC1; PEDFIC 2 only, 120 μg/kg/d; 25 weeks exposure), baseline 139.5) was 8.5 µmol/L. For the same compound, the “Pruritus Responder?” value (Patient 10 (prior PEBD, PFIC2; PEDFIC 2 only, 120 μg/kg/d; 35 weeks exposure)) was “Y (≥1-point drop in pruritus score at last assessment)”, the “Change From Baseline in Pruritus Score” value (Patient 10 (prior PEBD, PFIC2; PEDFIC 2 only, 120 μg/kg/d; 35 weeks exposure), baseline 2.5) was −1.5 and the “Change From Baseline in sBAs” value (Patient 10 (prior PEBD, PFIC2; PEDFIC 2 only, 120 μg/kg/d; 35 weeks exposure), baseline 79.5) was -70.5 µmol/L. The “patients who met criteria for pruritus response (≥1-point drop)” value [1] was 4 patients, the “patients with reductions in pruritus score” value [1] was 7 patients and the “patients with reductions in sBA levels” value [1] was 5 patients. The “patients who met criteria for sBA response (reduced by ≥70% or ≤70 μmol/L)” value (of 10 patients with prior PEBD surgery, last assessment) was 1 patient, the “patients with improved observer-reported PedsQL total scores” value (of the 9 prior-PEBD patients with post-baseline QoL assessments) was 6 patients and the tolerability (patients with prior PEBD surgery) was “generally well tolerated”. The “patients with TEAEs” value (prior PEBD subgroup, 9 of 10 patients, all mild to moderate) was 90%.
